Assay results: patent US7399462B2, “Protectant for UV-induced skin damage” (QLT USA, Inc., priority 2002, dated 2008)

What was measured:
UV-induced tumors = conditions: topical; UV induced mouse carcinogenicity model; cited from earlier work
[1] = tested on: UV-induced skin tumor formation

Compound	Formation of skin tumors compared to untreated or vehicle controls (UV-induced tumors)	Effect on Unbiased Median Weeks to Tumor (in words) ([1]; 600 RBU/week)	Tumor Potency Ratio (≧1 mm Tumor Size), Sexes Combined ([1]; UVR 600 RBU/week, sexes combined, calculated from Unbiased Median Week to Tumor and untreated 600/1200 RBU calibration)
CC1=C(/C=C/C(C)=C/C=C/C(C)=C/C(=O)O)C(C)(C)CCC1 [tretinoin]	promote the formation of skin tumors		
Nc1ccc(S(=O)(=O)c2ccc(N)cc2)cc1 [Dapsone, bis(4-aminophenyl)sulfone]		increased the Unbiased Median Weeks to Tumor in a dose-dependent manner	reduced with dapsone application in a dose-dependent manner
O=C(OOC(=O)c1ccccc1)c1ccccc1 [Benzoyl peroxide]	promote the formation of skin tumors		
